Paper PMC10644342, “Improved Antibacterial Activity of 1,3,4-Oxadiazole-Based Compounds That Restrict Staphylococcus aureus Growth Independent of LtaS Function” (ACS Infectious Diseases, 2023)

Assays:
E. coli strain K12 [1] = assay: Growth inhibition in combination with PAβN; assay type: cell-based, Escherichia coli; details: for concentration at which growth was completely inhibited: E. coli K12, 50 μg/mL PAβN; for MIC: Escherichia coli, E. coli K12, 100 μg/mL PAβN
Description: (§1) Phenylalanine-arginine β-naphthylamide (PAβN) is a well-studied efflux pump inhibitor, which can also permeabilize the outer membrane of Gram-negative organisms.[40] […] Without the addition of PAβN (0 μg/mL), neither 1771 nor 13 had any growth inhibitory activity at concentrations up to 64 μg/mL. With the addition of 25 μg/mL of PAβN, the E. coli strain K12 could still grow in the presence of 64 μg/mL of 1771 or 13; however, the growth rate was severely impacted in a dose-dependent manner. […] To further evaluate the Gram-negative coverage of 1771 and 13, we also tested 1771 or 13 in combination with PAβN against Pseudomonas aeruginosa strain PAO1, Klebsiella pneumoniae strain 699 (clinical isolate), and Acinetobacter baumannii strain DF1000 (clinical isolate) (Figure S6a–c).
Figure 8 Permeabilization of the outer membrane renders E. coli susceptible to 1771 and 13. Bacterial growth curves of (a) 1771 and (b) 13 (0–64 μg/mL) in combination with 0, 25, 50, and 100 μg/mL of PAβN. The bacterial growth (OD600nm) was plotted against time following 18 h of growth at 37 °C. The icons represent the mean of three biological replicates.

[2] = tested on: Pseudomonas aeruginosa strain PAO1; assay: Growth inhibition in combination with PAβN; assay type: cell-based; details: 32 μg/mL compound with 100 μg/mL PAβN
Description: as §1
Figure S6. Permeabilization of the outer membrane renders Gram-negative bacteria susceptible to 1771 and compound 13. Bacterial growth curves of A) Klebsiella pneumoniae, B) Acinetobacter baumannii and C) Pseudomonas aeruginosa against 1771 and 13 (0 – 64 µg/ml) in combination with 0, 25, 50, 100 µg/ml of PAβN. The bacterial growth (OD 600nm) was […]
(1 picture or pasted object on this page, not shown here)

[3] = tested on: MRSA strains LAC and EMRSA-15; assay: Serial passage resistance study; assay type: cell-based, Staphylococcus aureus; details: 25 days serial passage, after 14 days, then stable for 11 days
Description: plotted against time following 18 hours of growth at 37 °C. The icons represent the mean of three biological replicates.
Supplementary Materials and Methods
Synergistic activity with clinically relevant antibiotics
The synergistic ability of 1771 and 13 was achieved using the chequerboard micro-broth dilution method. Antibiotic partners tested included: oxacillin, daptomycin, vancomycin, gentamicin, and linezolid with starting concentrations of 256 µg/ml, 8 µg/ml, 8 µg/ml, 4 µg/ml, and 8 µg/ml respectively. Overnight cultures were sub-cultured 1:200 in fresh MHB and grown to optical density of OD600nm of 0.5-0.6 and prepared according to the MIC analysis. Following an 18 h incubation at 37 °C the sum of the fractional inhibitory […]
using the equation ΣFIC = FICA +FICB = (MICA in combination with B/MICA) + (MICB in combination with A/MICB). The resulting value was interpreted according to the following rules: synergistic (FIC ≤ 0.5), additive (FIC >0.5, <1) or indifferent (FIC ≥ 1 <4).
Serial passage resistance study
A serial passage in 1771 was performed using MRSA strains, LAC and EMRSA-15. For this assay, 15 ml tubes were filled with 3 ml of MHB and varying concentrations of 1771. The tubes containing either LAC or EMRSA-15 were incubated at 37 °C for 24 h before each passage. […]

S. aureus = tested on: S. aureus; design: method as in PMID 23401520; details: incubation for 3–4 days; cited from earlier work
LTA = tested on: LTA; design: method as in PMID 23401520; details: cited from earlier work
E. coli strain K12 [4] = tested on: E. coli strain K12; design: method as in PMID 23401520; details: initial small-molecule library screen; cited from earlier work
LtaS = tested on: LtaS; design: method as in PMID 29300473; details: LtaS in artificial liposomes; cited from earlier work
[5] = E. coli K12, 25 μg/mL PAβN, growth rate severely impacted dose-dependently
[6] = E. coli K12, without PAβN (0 μg/mL), 18 h

Structure (SMILES) | growth inhibitory concentration (E. coli strain K12 [1]; [5]) | concentration at which growth was completely inhibited (E. coli strain K12 [1]) | growth inhibitory concentration (E. coli strain K12 [1]; [6]) | MIC (E. coli strain K12 [1]) | growth of PAO1 [2] | change of MIC on serial passage [3] | resistant mutant selection (S. aureus) | LTA signal (LTA) | effect on the growth of Escherichia coli (E. coli strain K12 [4]) | inhibition of LtaS polymerization activity (LtaS)
O=C(COC(=O)Cc1coc2ccc3ccccc3c12)Nc1nnc(-c2ccc(S(F)(F)(F)(F)F)cc2)o1 [Compound 13, 2-Oxo-2-((5-(4-(pentafluoro-l6-sulfaneyl)phenyl)-1,3,4-oxadiazol-2-yl)amino)ethyl 2-(Naphtho[2,1-b]furan-1-yl)acetate] | > 64 µg/mL | 64 µg/mL | > 64 µg/mL | 1 µg/mL | severely inhibited | – | – | – | – | –
O=C(COC(=O)Cc1coc2ccc3ccccc3c12)Nc1nnc(-c2ccccc2)o1 [Compound 1771, 2-Oxo-2-((5-phenyl-1,3,4-oxadiazol-2-yl)amino)ethyl 2-(Naphtho[2,1-b]furan-1-yl)acetate, reference compound] | > 64 µg/mL | 64 µg/mL | > 64 µg/mL | 4 µg/mL | – | increased twofold | did not result in resistant mutant selection | dose-dependent reduction in the LTA signal | no effect on the growth | did not show inhibitory activity
